Measurements as given in patent US20230000832A1, “USE OF NEUROPILIN ANTAGONISTS FOR THE TREATMENT OF ENDOMETRIOSIS” (INSERM (Institut National de la Santé et de la Recherche …, priority 2019, published 2023).
“Also recorded” adds a separate entry of the source.

Key:
[1] = test system: human primary unmodified endometrial cell line (TH-EM1); assay: Cell proliferation assay (WST-1) on primary endometrial cells; type: cell-based; details: for endometrial growth inhibition: high concentration 10^−5M, since 2 days (D2) of exposure; for exposure time to reach maximum efficiency: low concentration between 10^−6 and 10^−7 M, effect stable at D5
Description: (§1) The human primary unmodified endometrial cell line (TH-EM1) describes by Gogusev j et al. 2019 is cultured with Dulbecco modified Eagle medium supplemented with 10% of fetal calf serum (FCS), L-glutamine, and antibiotics (Invitrogen-Thermo Fisher, Cergy-Pontoise, France). Cells were plated in 96-well plates or in 12-well plates to study cell proliferation or apoptosis, respectively.
Cells were plated in 200 μL/well in 96-well plates at 10^4 cells/well and were treated or not with Neuropilin antagonists (NRPa) such as NRPa-47, NRPa-48 at several concentration (10^−5 to 5·10^−8M) alone or in association with different concentrations of progestatif drugs such as Lutenyl® (Nomegestrol acetate) at 3·10^−5 M during 48 h, 72 h or 120 h. WST-1 (Roche®, France) was added for 2 h, then Optical Density was analyzed with a microplate reader (Microplate Manager 5.2, Bio-Rad) at 490 nm to determine the cell viability.

[2] = test system: human primary unmodified endometrial cell line (TH-EM1); assay: Apoptosis assay (Annexin-V/7AAD, flow cytometry); type: cell-based; details: 10^−6 M, 72 h, versus untreated and DMSO treated cells
Description: as §1
Cells were plated in 2000 μL/well in 12-well plates at 5·10^5 cells/well and were treated or not with Neuropilin antagonists (NRPa) such as NRPa-47, NRPa-48 during 48 h to 72 h at 10^−6M. Then, cells are harvested and stained using Annexin-V/7AAD kit protocol following manufacturer's recommendation. Then, stained cells were analyzed on a fluorescence activated cell sorter (FACS) Calibur flow cytometer (Becton Dickinson Co, Mountain View, Calif.) and data analysis was performed with Flowjo software.

Row | SMILES | inhibition at 10 µM ([1]; Homo sapiens, 10^−5M, after 48 h (D2), consistent at 72 h (D3), read-out: decrease of cell survival / inhibition of endometrial cells) | IC50 on primary endometrial cell proliferation ([1]; NRPa alone, concentration range, time course D2 to D5, approximative/calculated) | effect of association with progestogen on cell growth inhibition ([1]; NRPa-47 5·10^−7M (6·10^−7 M) with Lutenyl (Nomegestrol acetate) 3·10^−5 M) | endometrial growth inhibition [1] | exposure time to reach maximum efficiency [1] | induction of apoptosis and necrosis / cell death of endometrial cells [2] | IC50 ([1]; Homo sapiens, NRPa alone, approximative, same value restated in nM) | IC50 ([1]; Homo sapiens, NRPa alone, concentration range, time course D2 to D5, approximative/calculated) | effect of association with progestogen on cell growth inhibition ([1]; NRPa-48 5·10^−8M with Lutenyl (Nomegestrol acetate) 3·10^−5 M)
1 | Cc1ccc(-c2nc3ccccc3[nH]2)cc1NC(=S)NC(=O)c1ccc2c(c1)OCCO2 [NRPa-47, N-[5-(1H-benzimidazol-2-yl)-2-methylphenyl]-N′-(2,3-dihydro-1,4-benzodioxin-6-ylcarbonyl)thiourea] | 80% | 10^−6 to 10^−7 M | Additif effect; also recorded: additive effect | rapid endometrial growth inhibition | 3 days | induction of apoptosis; also recorded: induced endometrial cell death | – | – | –
2 | O=C(NC(=S)Nc1cccc(-c2nc3ccccc3[nH]2)c1)c1ccc2c(c1)OCCO2 [NRPa-48, N-[3-(1H-benzimidazol-2-yl)phenyl]-N′-(2,3-dihydro-1,4-benzodioxin-6-ylcarbonyl)thiourea] | – | – | – | rapid endometrial growth inhibition | 3 days | induction of apoptosis; also recorded: induced endometrial cell death | ~100 nM | 100 nM | synergistic effect
